Data from US8703711B2, “Ninjurin-1 modulation and uses thereof” (Val-Chum, Limited Partnership, priority 2009, dated 2014).

Tests used:
[1] = test system: human CD14+ monocytes migrating across human BBB-endothelial cells; assay: In vitro model of the human BBB (Boyden chamber): CD14+ monocyte migration; format: cell-based; details: human Ninj26-37 peptide 0.4 mM on BBB-ECs 1 h before cells; 24 h migration; vs scramble peptide
Description: In vitro model of the BBB. BBB-ECs grown in primary cultures were used to generate an in vitro model of the human BBB, as published previously (Cayrol et al., Nature Immunol 9(2): 137-45 Epub 2007 Dec. 23). Human BBB-endothelial cells (25×10^3 cells/chamber) were grown in primary culture on 3 μm porous membrane (Becton Dickinson Labware, Franklin Lakes, N.J., USA), coated with 0.5% gelatin (Sigma), in endothelial cell culture media supplemented with 40% ACM, for 4 days to reach confluency. The BBB-endothelial cells were treated with 0.4 mM of scramble peptide (WRGNPGIRWAPH, SEQ ID NO: 12), 0.4 mM of human Ninj26-37 (PARWGWRHGPIN; SEQ ID NO: 5), 10 μg/ml of sheep IgG isotype control or 10 μg/ml of sheep anti-human Ninjurin-1 blocking Ab one hour prior to the addition of the leukocytes. Human ex vivo CD14^+ monocytes, or CD4^+, or CD8^+ lymphocytes were isolated, from consenting healthy donors, as described above. The leukocytes were added to the upper chamber (1×10^6 cells/chamber) and were allowed to migrate across human BBB-endothelial cells for 24 h. The cells that migrated through the BBB-endothelial cells, were recovered from the lower chamber and counted manually. All migration data shown represent at least 3 independent experiments performed in triplicate.

EAE mice = assay: Experimental autoimmune encephalomyelitis (EAE) induced with MOG35-55/CFA; format: in vivo, C57BL/6 mice
Description: Flow Cytometric analysis of Ninjurin-1 expression. Cells were harvested and resuspended in FACS buffer composed of PBS supplemented with 1% FBS (Biosource-Invitrogen) and 0.1% NaN3 (Sigma). The cells were incubated with HS (Biosource-Invitrogen) to prevent unspecific binding. BBB-endothelial cells and PBMCs were incubated for 1 h at 4° C. with the primary unconjugated monoclonal mouse anti-Ninjurin-1 antibody (20 μg/ml, BD Biosciences), or with the Functional Grade Purified Mouse IgG2a Isotype Control (20 μg/ml, ebioscience, Inc., San Diego, Calif., USA). Cells were then incubated for 30 min at 4° C. with an allophycocyanin (APC)-conjugated goat anti-mouse Ig (2 μg/ml, BD Biosciences) to detect specific binding. Cells were then counter-stained for 30 min at 4° C. with mouse anti-human conjugated antibodies: Human Leukocyte Antigen (HLA)-ABC, Intracellular cell adhesion molecule (ICAM)-1, CD3, CD4, CD8, CD19, HLA-DR, CD14, CD83, CD123, CD209, CD11c or with corresponding isotype controls (all from BD Biosciences). To study the expression of Ninjurin-1 on murine immune cells, the mouse monoclonal anti-Ninjurin-1 antibody was biotinylated, to prevent unspecific binding of the secondary antibody. A buffer exchange was performed with a Slide-A-Lyzer® Dialysis Cassette (3.5-20K Cassettes, Thermo Scientific, Rockford, Ill., USA) to remove glycerol and bovine serum albumin (BSA) from the antibody solution using Melon™ Gel IgG Spin Purification Kit. Biotin was added using the EZ-Link® Micro NHS-PEO4-Biotinylation kit according to the manufacturer's instructions (Thermo Scientific). Murine peripheral blood or CNS mononuclear cells were incubated for 1 h at 4° C. with the primary biotinylated monoclonal mouse anti-Ninjurin-1 antibody (5 μg/ml, BD Biosciences), or with the Biotin-conjugated IgG2a, K isotype control (5 μg/ml, ebioscience). Cells were then incubated for 30 min at 4° C. with secondary antibody […]—APC (2 μg/ml, BD Biosciences). […] Cells were acquired on a BD LSR™ II Flow cytometer and analyzed using the BD FACSDiva™ software (BD Biosciences). […]

SCI mice = assay: Spinal cord injury (SCI), contusion with Infinite Horizons impactor; format: in vivo, C57BL/6 mice
Description: Immunofluorescent stainings of human and mouse CNS material. Luxol Fast Blue (LFB) and H&E stainings (Wosik et al., 2007) were performed on human and mouse brain tissue specimens obtained from four MS patients (autopsy) and EAE/SCI animals. Sections showing acute demyelinating lesions and active perivascular mononuclear cell infiltration were selected (8 to 12 blocks per MS donor), and compared to normal-appearing white matter from the same donors (8 blocks per donor) and to non-neurological disease controls (3 donors; 9-11 blocks per donor). Mean age was 49±6 years and disease duration ranged from 3 to 23 years. The cause of death was pneumonia (2), urosepsis (1) and barbiturate intoxication (1). […] Fluorescence was visualized on a Leica™ DM6000 B epifluorescent microscope equipped with a DFC480 digital camera (Leica Microsystems, Wetzlar Germany) or on a Leica™ SP5 confocal microscope. Images were acquired using Openlab™ 4.0.4 (Improvision, Waltham, Mass.) and processed and analyzed with Adobe Photoshop™ CS2 (Adobe, Mountain View, Calif.). Numbers of CD11c+ DCs, F4/80+ macrophages and MHC II+ cells in spinal cord were quantified in pictures of 15 random fields of the spinal cord (two mice per treatment group). […]
Spinal cord injury. […] Locomotor recovery was evaluated in an open-field test using the Basso Mouse Scale (BMS) (Basso D. M. et al., (2006). J Neurotrauma. 23(5): 635-59). […]

Sequence | migration of CD14+ monocytes across human BBB-endothelial cells [1] | demyelination (tissue damage) and immune cell infiltration in EAE spinal cord, Luxol fast blue-H&E (EAE mice; Ninj26-37 200 μg i.p. twice daily day 3 to 23, vs control group) | infiltrating MHC II+, F4/80+ and CD11c+ myeloid cells in EAE spinal cord, immunofluorescence and cell counts (EAE mice; Ninj26-37 200 μg i.p. twice daily, 14 days post-immunization, vs control/scramble) | EAE neurological signs, symptoms and clinical scores (EAE mice; mouse Ninj26-37 200 μg i.p. twice a day, day 3 to 23 post-immunization, vs PBS (FIG. 6A) or scramble peptide (FIG. 15)) | infiltration of Iba1+ and CD11c+ myeloid cells in the spinal cord of SCI animals (SCI mice; murine Ninj26-37 200 μg i.p. b.i.d. day 1 to 7 after injury, day 7 post-injury, vs control peptide) | clinical scores (Basso mouse scale, BMS) after SCI (SCI mice; murine Ninj26-37 200 μg i.p. twice a day, vs control animals)
PARWGWRHGPIN (SEQ ID NO: 5) (listed as Homo sapiens) [human Ninj26-37] | significantly restricts the migration | – | – | – | – | –
PPRWGLRNRPIN (SEQ ID NO: 6) (Peptide corresponding to residues 26 to 37 of human Ninjurin-1) [mouse Ninj26-37] | – | reduction in immune cell infiltration and demyelination | reduction of infiltrating | significant reduction of the neurological signs, symptoms and clinical scores | reduced | reduced
